According to patent US5008267A, “Pyrimidinedione compounds, method of producing the same and antiarrythmic agents containing the same” (Mitsui Toatsu Chemicals, Incorporated, priority 1988, dated 1991):
Structures can show the parent of a compound that is named as a salt.

Tests used:
[1] = tested on: Purkinje fiber of the right ventricular free wall (myocardial action potential); test: Influence on myocardial action potential duration time (APD75), isolated right ventricular free wall, microelectrode in Purkinje fiber; format: cell-based, dog; details: Canis lupus familiaris, 20 min, 20 minutes' incubation; for activation at 1 µg/mL: 1.0 μg/ml; for activation at 1 µg/mL / activation at 3 µg/mL / activation at 10 µg/mL: (B-A)/A×100, read-out: APD75 (%); for activation at 3 µg/mL: 3.0 μg/ml; for activation at 10 µg/mL: 10.0 μg/ml
[2] = Toxicity test, mortality rate 24 hours after administration; details: mouse, in vivo
Experimental: Each of the compounds prepared in the above-mentioned examples was administered into a mouse (ddY strain, male). In each case, oral administration (p.o.) and intra peritoneal administration (i.p.) were separately carried out in a dose of 300 mg/kg and 250 mg/kg, respectively.
A mortality rate (number of specimens: one group=2 to 4 mice) of the mice 24 hours after the administration was calculated, and the results are set forth in Table 3.
Following the same procedure as in Toxicity Test 1, toxicity of the respective compounds prepared in the above examples in Table 5 was tested to calculate a mortality rate of mice.
Administration was made by oral administration (p.o.) in an amount of 300 mg/kg of each compound for one mouse.
Following the same procedure as in Toxicity Test 1, toxicity of the respective compounds prepared in the above examples in Table 7 was tested to calculate a mortality rate of mice.

[3] = tested on: ventricular muscle refractory period; test: Influence on ventricular muscle refractory period (ERP); format: in vivo, mongrel dog; details: Canis lupus familiaris, iv, i.v., (W-Y)/Y×100, read-out: ERP (%; extensibility of refractory period)
How it was run: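 Anesthetized (pentobarbital 30 mg/kg i.v.) mongrel dog, compound given i.v. or intraduodenally; right ventricle paced via bipolar electrodes at 400 msec, 4 msec pulses, twice threshold, sinus pacemaker abolished with alcohol. Refractory period taken as shortest inter-train interval (10 msec steps) losing response; ERP (%) = (after − before)/before × 100.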

SMILES: Cn1c(NCCN(CCO)CCCc2ccc([N+](=O)[O-])cc2)cc(=O)n(C)c1=O [Compound 8]
- activation at 0.3 µg/mL ([1]; 0.3 μg/ml, (B-A)/A×100): 16%
- activation at 1 µg/mL [1]: 22%
- activation at 3 µg/mL [1]: 38%
- mortality at 24 h ([2]; ip, 250 mg/kg (i.p.)): 0%
- mortality at 24 h ([2]; po, 300 mg/kg (p.o.)): 0%
- change in vivo at 0.1 mg/kg [3]: 0%
- change in vivo at 0.3 mg/kg [3]: 10.7%
- change in vivo at 1 mg/kg [3]: 21.4%
- change in vivo at 3 mg/kg [3]: 14.2%

SMILES: CCN(CCNCCCCc1ccc([N+](=O)[O-])cc1)c1cc(=O)n(C)c(=O)n1C [Compound 26, 1,3-dimethyl-6-{N-ethyl-N-<2-[4-(4-nitrophenyl)butylamino]ethyl>amino}-2,4(1H,3H)-pyrimidinedione oxalate]
- activation at 1 µg/mL [1]: 20%
- activation at 3 µg/mL [1]: 30%
- activation at 10 µg/mL [1]: 35%
- mortality at 24 h ([2]; ip, 250 mg/kg (i.p.)): 50%
- mortality at 24 h ([2]; po, 300 mg/kg (p.o.)): 0%
- change in vivo at 0.1 mg/kg [3]: 6.5%
- change in vivo at 0.3 mg/kg [3]: 6.5%
- change in vivo at 1 mg/kg [3]: 6.5%
- change in vivo at 3 mg/kg [3]: 6.5%

SMILES: Cn1c(N2CCN(CCCOc3ccc(C(=O)c4ccccc4)cc3[N+](=O)[O-])CC2)cc(=O)n(C)c1=O [Compound 78, 1,3-dimethyl-6-{4-[3-(4-benzoyl-2-nitrophenoxy)propyl]piperazin-1-yl}-2,4(1H,3H)-pyrimidinedione oxalate]
- activation at 1 µg/mL [1]: 19%
- activation at 3 µg/mL [1]: 42%
- mortality at 24 h ([2]; po, 300 mg/kg (p.o.)): 0%
- change in vivo at 0.1 mg/kg [3]: 6.7%
- change in vivo at 0.3 mg/kg [3]: 13.3%
- change in vivo at 1 mg/kg [3]: 20%
- change in vivo at 3 mg/kg [3]: 26.7%

SMILES: CCN(CCNc1ccc([N+](=O)[O-])cc1)CCNc1cc(=O)n(C)c(=O)n1C [Compound 71, 1,3-dimethyl-6-{2-[N-ethyl-2-(4-nitroanilino)ethylamino]ethylamino}-2,4(1H,3H)-pyrimidinedione oxalate]
- activation at 1 µg/mL [1]: 8%
- activation at 3 µg/mL [1]: 15%
- activation at 10 µg/mL [1]: 17%
- mortality at 24 h ([2]; po, 300 mg/kg (p.o.)): 0%
- change in vivo at 0.1 mg/kg [3]: 6.7%
- change in vivo at 0.3 mg/kg [3]: 7.7%
- change in vivo at 1 mg/kg [3]: 13.4%
- change in vivo at 3 mg/kg [3]: 16.6%

SMILES: Cn1c(N2CCN(CCCCc3ccc([N+](=O)[O-])cc3)CC2)cc(=O)n(C)c1=O [Compound 34, 1,3-dimethyl-6-{4-[4-(4-nitrophenyl)butyl]piperazine-1-yl}-2,4(1H,3H)-pyrimidinedione hydrochloride]
- activation at 3 µg/mL [1]: 17%
- activation at 10 µg/mL [1]: 25%
- mortality at 24 h ([2]; po, 300 mg/kg (p.o.)): 100%
- change in vivo at 0.1 mg/kg [3]: 6%
- change in vivo at 0.3 mg/kg [3]: 12%
- change in vivo at 1 mg/kg [3]: 12%
- change in vivo at 3 mg/kg [3]: 18%

SMILES: Cn1c(N2CCN(CCCOc3ccc([N+](=O)[O-])cc3C(=O)c3ccccc3Cl)CC2)cc(=O)n(C)c1=O [Compound 105, 1,3-dimethyl-6-{4-<3-[2-(2-chlorobenzoyl)-4-nitrophenoxy]propyl>piperazin-1-yl}-2,4(1H,3H)-pyrimidinedione oxalate]
- activation at 1 µg/mL [1]: 11%
- activation at 3 µg/mL [1]: 23%
- activation at 10 µg/mL [1]: 28%
- mortality at 24 h ([2]; po, 300 mg/kg (p.o.)): 0%
- change in vivo at 0.1 mg/kg [3]: 0%
- change in vivo at 0.3 mg/kg [3]: 0%
- change in vivo at 1 mg/kg [3]: 6.3%
- change in vivo at 3 mg/kg [3]: 6.3%

SMILES: COC(=O)CN(CCCNc1ccc([N+](=O)[O-])cc1)CCNc1cc(=O)n(C)c(=O)n1C [Compound 166, 1,3-dimethyl-6-{2-[N-methoxycarbonylmethyl-3-(4-nitroanilino)propylamino]ethylamino}-2,4(1H,3H)-pyrimidinedione hydrochloride]
- activation at 1 µg/mL [1]: 8%
- activation at 3 µg/mL [1]: 18%
- mortality at 24 h ([2]; po, 300 mg/kg (p.o.)): 0%
- change in vivo at 0.1 mg/kg [3]: 6.7%
- change in vivo at 0.3 mg/kg [3]: 6.7%
- change in vivo at 1 mg/kg [3]: 6.7%
- change in vivo at 3 mg/kg [3]: 6.7%

SMILES: Cn1c(N2CCN(CCCSc3ccc([N+](=O)[O-])cc3)CC2)cc(=O)n(C)c1=O [Compound 51, 1,3-dimethyl-6-{4-[3-(4-nitrophenylthio)propyl]piperazin-1-yl}-2,4(1H,3H)-pyrimidinedione oxalate]
- activation at 3 µg/mL [1]: 33%
- mortality at 24 h ([2]; po, 300 mg/kg (p.o.)): 0%
- change in vivo at 0.1 mg/kg [3]: 12.6%
- change in vivo at 0.3 mg/kg [3]: 12.6%
- change in vivo at 1 mg/kg [3]: 19%

SMILES: Cn1c(N2CCN(CCCOc3ccc([N+](=O)[O-])cc3Cl)CC2)cc(=O)n(C)c1=O [Compound 141, 1,3-dimethyl-6-{4-[3-(2-chloro-4-nitrophenyloxy)propyl]piperazin-1-yl}-2,4(1H,3H)-pyrimidinedione hydrochloride]
- activation at 1 µg/mL [1]: 27%
- activation at 3 µg/mL [1]: 41%
- mortality at 24 h ([2]; po, 300 mg/kg (p.o.)): 0%
- change in vivo at 0.1 mg/kg [3]: 0%
- change in vivo at 0.3 mg/kg [3]: 2.1%
- change in vivo at 1 mg/kg [3]: 2.1%
- change in vivo at 3 mg/kg [3]: 15%
